Laboratory results reported in US12240818B2, “Crystalline forms of plasma kallikrein inhibitors” (Rezolute, Inc., priority 2019, dated 2025).
One block for each molecule: values may come before it.

Experiments:
[1] = system: angiotensin-II-treated rodents; conditions: cited from earlier work
[2] = system: rat model of ischemic stroke; conditions: cited from earlier work
[3] = system: model of hemorrhagic stroke; conditions: cited from earlier work
[4] = Aqueous solubility of solid forms; type: physicochemical; conditions: for aqueous solubility: at 25° C., acetate
[5] = Compression stability of crystalline forms (XRPD, TGA, DSC); type: physicochemical; conditions: compression under 11×10^5 N force for about 25-28 hours; acetate
Method: X-Ray Powder Diffraction patterns were collected under ambient conditions (about 20° C.) on a PANalytical X'Pert PRO X-ray diffractometer (Malvern Panalytical, Malvern, UK) using Cu Kα radiation (45 kV, 40 mA), θ-θ goniometer, focusing mirror, divergence slit (½″), Soller slits at both incident and divergent beam (4 mm), a transmission foil sample stage (Kapton® polyimide, 12.7 μm thickness film), and a PIXcel detector. The software used for data collection was X'Pert Data Collector, version 2.2f, and the data was presented using X'Pert Data Viewer, version 1.2d. The data collection range was 2.994-35°2θ with a continuous scan speed of 0.202004° s^−1. Differential scanning calorimetry data was collected on a PerkinElmer Pyris 6000 DSC equipped with a 45 position sample holder. The instrument was verified for energy and temperature calibration using certified indium. In the examples below, a predefined amount of the sample (0.5-3.0 mg) was placed in a pin holed aluminum pan and heated at 20° C./min from 30° C. to 350° C., or varied as experimentation dictated. A purge of dry nitrogen at 20 mL/min was maintained over the sample. The instrument control, data acquisition and analysis were performed with Pyris Software v11.1.1 revision H. Thermo-Gravimetric Analysis data was collected on a PerkinElmer Pyris 1 TGA equipped with a 20 position auto-sampler. The instrument was calibrated using a certified weight and certified Alumel and Perkalloy for temperature. In the examples below, a predefined amount of the sample (˜5 mg) was loaded onto a pre-tared aluminum crucible and was heated at 20° C./min from ambient temperature to 400° C. unless otherwise stated. A nitrogen purge at 20 mL/min was maintained over the sample. The instrument control, data acquisition and analysis were performed with Pyris Software v11.1.1 revision H. The manufacturing process for solid dosage forms can require high compression and/or grinding, which may cause a change in crystal structure for some compounds. Compound 1 Form I and Form II were subjected to compression under 11×10^5N force for about 25-28 hours to assess the impact of compression upon the form stability of these crystalline forms.

[6] = Grinding stability of crystalline forms (XRPD, thermal); type: physicochemical
Method: X-Ray Powder Diffraction patterns were collected under ambient conditions (about 20° C.) on a PANalytical X'Pert PRO X-ray diffractometer (Malvern Panalytical, Malvern, UK) using Cu Kα radiation (45 kV, 40 mA), θ-θ goniometer, focusing mirror, divergence slit (½″), Soller slits at both incident and divergent beam (4 mm), a transmission foil sample stage (Kapton® polyimide, 12.7 μm thickness film), and a PIXcel detector. The software used for data collection was X'Pert Data Collector, version 2.2f, and the data was presented using X'Pert Data Viewer, version 1.2d. The data collection range was 2.994-35°2θ with a continuous scan speed of 0.202004° s^−1.
Differential scanning calorimetry data was collected on a PerkinElmer Pyris 6000 DSC equipped with a 45 position sample holder. The instrument was verified for energy and temperature calibration using certified indium. In the examples below, a predefined amount of the sample (0.5-3.0 mg) was placed in a pin holed aluminum pan and heated at 20° C./min from 30° C. to 350° C., or varied as experimentation dictated. A purge of dry nitrogen at 20 mL/min was maintained over the sample. The instrument control, data acquisition and analysis were performed with Pyris Software v11.1.1 revision H.
Thermo-Gravimetric Analysis data was collected on a PerkinElmer Pyris 1 TGA equipped with a 20 position auto-sampler. The instrument was calibrated using a certified weight and certified Alumel and Perkalloy for temperature. In the examples below, a predefined amount of the sample (˜5 mg) was loaded onto a pre-tared aluminum crucible and was heated at 20° C./min from ambient temperature to 400° C. unless otherwise stated. A nitrogen purge at 20 mL/min was maintained over the sample. The instrument control, data acquisition and analysis were performed with Pyris Software v11.1.1 revision H.
Samples of both Form I and Form II (about 100 mg each) were subjected to grinding operations to assess the impact on solid form and observed microscopy. It was of interest to note whether amorphous content was generated, and to review the impact upon water content for the batches, especially with regards to Form II hydrate.

[7] = system: patients with hereditary angioedema; conditions: cited from earlier work
[8] = system: animal model of ischemic stroke; conditions: cited from earlier work
[9] = system: mouse model of middle cerebral artery occlusion; conditions: cited from earlier work

Molecule: CC(=O)O.N=C(N)c1ccc(CNC(=O)c2cnn(Cc3ccccc3)c2)cc1 [Compound 1, 1-benzyl-N-(4-carbamimidoylbenzyl)-1H-pyrazole-4-carboxamide acetate salt]
- retinal vascular permeability [1]: reduce retinal vascular permeability
- infarction volume and cerebrovascular edema [2]: reduce infarction volume and cerebrovascular edema
- expansion of intracerebral hemorrhage [3]: reduce

- solubility ([4]; water, 25 °C): ~8.3 mg/mL
- TGA thermograph change following compression [5]: no change in the TGA thermograph
- stability under manual stress ([6]; compression and grinding, summary): superior stability to hydrated Form II
Molecule: CC(=O)O.N=C(N)c1ccc(CNC(=O)c2cnn(Cc3ccccc3)c2)cc1 [Form I, 1-benzyl-N-(4-carbamimidoylbenzyl)-1H-pyrazole-4-carboxamide acetate]
- DSC thermograph change following compression [5]: reduction in the intensity and temperature of the melt endotherm
- XRPD pattern change following compression [5]: subtle reduction in diffraction resolution

- aqueous solubility [4]: about 5.5 mg/mL
- TGA thermograph change following compression [5]: slight increase in the water content
- water content post-grinding ([6]; after grinding): 3.93 wt %
- water content at point of production ([6]; before grinding): 2.76 wt %
Molecule: CC(=O)O.N=C(N)c1ccc(CNC(=O)c2cnn(Cc3ccccc3)c2)cc1 [Form II, 1-benzyl-N-(4-carbamimidoylbenzyl)-1H-pyrazole-4-carboxamide acetate]
- DSC thermograph change following compression [5]: reduction in the intensity, but increase of the temperature of the main melt endotherm
- XRPD pattern change following compression [5]: significant change in the diffraction pattern to a pattern of reduced crystallinity
- change of solid form post-grinding (thermal, XRPD) ([6]; about 100 mg ground): minor alteration in reflection resolution and intensity

- aqueous solubility [4]: about 7.2 mg/mL
Molecule: CC(=O)O.N=C(N)c1ccc(CNC(=O)c2cnn(Cc3ccccc3)c2)cc1 [Form III, 1-benzyl-N-(4-carbamimidoylbenzyl)-1H-pyrazole-4-carboxamide acetate]

- aqueous solubility [4]: about 7.1 mg/mL
Molecule: CC(=O)O.N=C(N)c1ccc(CNC(=O)c2cnn(Cc3ccccc3)c2)cc1 [Form V, 1-benzyl-N-(4-carbamimidoylbenzyl)-1H-pyrazole-4-carboxamide acetate]

Molecule: NC(N)=NCCC[C@@H](N)C(=O)N[C@@H](CCCN=C(N)N)C(=O)N1CCC[C@H]1C(=O)N1C[C@H](O)C[C@H]1C(=O)NCC(=O)N[C@@H](Cc1cccs1)C(=O)N[C@@H](CO)C(=O)N1Cc2ccccc2C[C@@H]1C(=O)N1[C@H](C(=O)N[C@@H](CCCN=C(N)N)C(=O)O)C[C@@H]2CCCC[C@@H]21 [icatibant]
- effect on hereditary angioedema [7]: effective

Molecule: Ecallantide
- effect on hereditary angioedema [7]: alleviates edema
- brain edema, infarct volume and neurological deficits [8]: reduced brain edema, infarct volume and neurological deficits

Molecule: Hoe-140 [reference compound]
- retinal vascular permeability [1]: reduce retinal vascular permeability

B1: C1-INH: the major endogenous inhibitor of PK (protein, UniProt P05155 23-500, looked up)
Plasma protease C1 inhibitor: NPNATSSSSQDPESLQDRGEGKVATTVISKMLFVEPILEVSSLPTTNSTTNSATKITANTTDEPTTQPTTEPTTQPTIQPTQPTTQLPTDSPTQPTTGSFCPGPVTLCSDLESHSTEAVLGDALVDFSLKLYHAFSAMKKVETNMAFSPFSIASLLTQVLLGAGENTKTNLESILSYPKDFTCVHQALKGFTTKGVTSVSQIFHSPDLAIRDTFVNASRTLYSSSPRVLSNNSDANLELINTWVAKNTNNKISRLLDSLPSDTRLVLLNAIYLSAKWKTTFDPKKTRMEPFHFKNSVIKVPMMNSKKYPVAHFIDQTLKAKVGQLQLSHNLSLVILVPQNLKHRLEDMEQALSPSVFKAIMEKLEMSKFQPTLLTLPRIKVTTSQDMLSIMEKLEFFDFSYDLNLCGLTEDPDLQVSAMQHQTVLELTETGVEAAAASAISVARTLLVFEVQQPFLFVLWDQQHKFPVFMGRVYDPRA
- infarct size [9]: reduced infarct size
